Data reported in article PMC5587909, “Inhibition of the ATP Synthase Eliminates the Intrinsic Resistance of Staphylococcus aureus towards Polymyxins” (mBio, 2017).
In brackets after ≈: the same amount, converted by molar mass. Bridge positions count the residues as written; N and C are the ends. Square brackets hold non-standard residues; d marks the D form. Peptide text beside a SMILES is read from it. * marks the point of attachment. Ileψ(thiazoline)Cys = CC[C@H](C)[C@H](N)C1=N[C@H](C(=O)*)CS1; dOrn = NCCC[C@@H](N)C(=O)O

Assays:
[1] = system: S. aureus JE2 atpA mutant; format: cell-based, Staphylococcus aureus; conditions: 2-fold broth microdilution in TSB (100 µl), inoculum approx. 5 × 10^5 cells/ml, 37°C, 22 h
From the text: (§1) The strains used in this study include S. aureus strain JE2 (plasmid-cured derivative of USA300 LAC) and all derivative strains within the Nebraska Transposon Mutant Library (NTML), consisting of 1,920 unique transposon mutants with inactivation of nonessential genes ([15]). The bursa aurealis transposon used to create the collection contains the resistance cassette ermB, which confers resistance to erythromycin ([15]). Additionally we used S. aureus SA113 and two derivatives, SA113 ΔdltA ([9]) and SA113 ΔmprF ([10]). All bacterial strains were cultured at 37°C in tryptic soy broth (TSB) or on tryptic soy agar (TSA), with antimicrobial agents added as indicated. Two methods have been employed to determine MICs to various antimicrobial agents. (i) A 2-fold broth microdilution assay in TSB (100 µl) with an initial inoculum of approximately 5 × 10^5 cells/ml was employed to determine the MICs of polymyxin B sulfate (Sigma), gallidermin (Santa Cruz Biotechnology), nisin (Sigma), bacitracin (Sigma), and LL-37 (Isca Biochemicals). (ii) An Etest (BioMérieux) performed on TSA plates was employed to determine MICs for polymyxin B, colistin, ciprofloxacin, oxacillin, linezolid, gentamicin, vancomycin, and daptomycin. The MIC was determined upon incubation at 37°C for 22 h. When indicated, the Etest (BioMérieux) was performed on Mueller-Hinton agar plates (cation adjusted for calcium and magnesium).

[2] = system: S. aureus JE2 graR mutant; format: cell-based, Staphylococcus aureus; conditions: 2-fold broth microdilution in TSB (100 µl), inoculum approx. 5 × 10^5 cells/ml, 37°C, 22 h; graR mutant
From the text: as §1

[3] = system: S. aureus JE2 (WT); format: cell-based, Staphylococcus aureus; conditions: 2-fold broth microdilution in TSB (100 µl), inoculum approx. 5 × 10^5 cells/ml, 37°C, 22 h
From the text: as §1

[4] = system: S. aureus JE2 vraF mutant; format: cell-based, Staphylococcus aureus; conditions: 2-fold broth microdilution in TSB (100 µl), inoculum approx. 5 × 10^5 cells/ml, 37°C, 22 h; vraF mutant
From the text: as §1

[5] = system: S. aureus JE2 vraG mutant; format: cell-based, Staphylococcus aureus; conditions: 2-fold broth microdilution in TSB (100 µl), inoculum approx. 5 × 10^5 cells/ml, 37°C, 22 h
From the text: as §1

[6] = system: S. aureus; conditions: cited from earlier work

SMILES	MIC, atpA [1] [µg/mL]	MIC, graR [2] [µg/mL]	MIC, WT [3] [µg/mL]	MIC, vraF [4] [µg/mL]	MIC, vraG [5] [µg/mL]	activity against S. aureus [6]
CC[C@H](C)[C@H](N)C1=N[C@H](C(=O)N[C@@H](CC(C)C)C(=O)N[C@H](CCC(=O)O)C(=O)N[C@H](C(=O)N[C@H]2CCCCNC(=O)[C@H](CC(N)=O)NC(=O)[C@@H](CC(=O)O)NC(=O)[C@H](Cc3cnc[nH]3)NC(=O)[C@@H](Cc3ccccc3)NC(=O)[C@H]([C@@H](C)CC)NC(=O)[C@@H](CCCN)NC2=O)[C@@H](C)CC)CS1 [Bacitracin, bacitracin] ({Ileψ(thiazoline)Cys}-L[dE]IK[dOrn]I[dF]H[dD]N; lactam 4-C (inferred); N-terminus assumed)	128 (≈ 90 µM)	128 (≈ 90 µM)	256 (≈ 180 µM)	256 (≈ 180 µM)	256 (≈ 180 µM)	
COc1nc2ccc(Br)cc2cc1[C@@H](c1ccccc1)[C@@](O)(CCN(C)C)c1cccc2ccccc12 [Bedaquiline, bedaquiline]						limited or no activity
